Experimental findings from patent publication US6960574B2, “Antagonists of RF-amide neuropeptides” (University of Florida, priority 2002, dated 2005) are described below.

Peptide text beside a SMILES is read from it. * marks the point of attachment. Dansyl = CN(C)c1cccc2c(S(=O)(=O)*)cccc12

For this experiment, the system named is receptor labeled by the radioiodinated analogue of 1 (4, [125I]-YLFQPQRF-NH2); neuropeptide FF receptor. The experiment can be described thus: Competitive radioligand binding against 4 ([125I]Y8F-amide). To be noted: mixture-based positional scanning; difference from averaged radioligand displacement of whole library (0); about 80 a.u. = 10-fold change in Ki.

As for `C[C@@H](O)[C@H](NS(=O)(=O)c1cccc2c(N(C)C)cccc12)C(=O)N[C@@H](Cc1c[nH]cn1)C(=O)N[C@@H](CCCNC(=N)N)C(N)=O` [Dansyl-THR-amide] (Dansyl-Thr-His-Arg-NH2), the “Relative Binding Index (RBI)” value was −14 a.u.

For `CC[C@H](C)[C@H](NC(=O)[C@@H](NS(=O)(=O)c1cccc2c(N(C)C)cccc12)[C@@H](C)O)C(=O)N[C@@H](CCCNC(=N)N)C(N)=O` [Dansyl-TIR-amide] (Dansyl-Thr-Ile-Arg-NH2), the “Relative Binding Index (RBI)” value is recorded as −2 a.u.

Take `C[C@@H](O)[C@H](NS(=O)(=O)c1cccc2c(N(C)C)cccc12)C(=O)N[C@@H](CCCCN)C(=O)N[C@@H](CCCNC(=N)N)C(N)=O` [Dansyl-TKR-amide] (Dansyl-Thr-Lys-Arg-NH2): the “Relative Binding Index (RBI)” value is recorded as −11 a.u.

With `CC(C)C[C@H](NC(=O)[C@@H](NS(=O)(=O)c1cccc2c(N(C)C)cccc12)[C@@H](C)O)C(=O)N[C@@H](CCCNC(=N)N)C(N)=O` [Dansyl-TLR-amide] (Dansyl-Thr-Leu-Arg-NH2), the “Relative Binding Index (RBI)” value is listed as −17 a.u.

Consider `CSCC[C@H](NC(=O)[C@@H](NS(=O)(=O)c1cccc2c(N(C)C)cccc12)[C@@H](C)O)C(=O)N[C@@H](CCCNC(=N)N)C(N)=O` [Dansyl-TMR-amide] (Dansyl-Thr-Met-Arg-NH2), for which the “Relative Binding Index (RBI)” value is listed as −9 a.u.

For `C[C@@H](O)[C@H](NS(=O)(=O)c1cccc2c(N(C)C)cccc12)C(=O)N[C@@H](CC(N)=O)C(=O)N[C@@H](CCCNC(=N)N)C(N)=O` [Dansyl-TNR-amide] (Dansyl-Thr-Asn-Arg-NH2), the “Relative Binding Index (RBI)” value is given as −7 a.u.

As to `C[C@@H](O)[C@H](NS(=O)(=O)c1cccc2c(N(C)C)cccc12)C(=O)N1CCC[C@H]1C(=O)N[C@@H](CCCNC(=N)N)C(N)=O` [Dansyl-TPR-amide] (Dansyl-Thr-Pro-Arg-NH2), the “Relative Binding Index (RBI)” value was −5 a.u.

Turning to `C[C@@H](O)[C@H](NS(=O)(=O)c1cccc2c(N(C)C)cccc12)C(=O)N[C@@H](CCC(N)=O)C(=O)N[C@@H](CCCNC(=N)N)C(N)=O` [Dansyl-TQR-amide] (Dansyl-Thr-Gln-Arg-NH2), the “Relative Binding Index (RBI)” value came out at 5 a.u.

Take `C[C@@H](O)[C@H](NS(=O)(=O)c1cccc2c(N(C)C)cccc12)C(=O)N[C@@H](CCCNC(=N)N)C(=O)N[C@@H](CCCNC(=N)N)C(N)=O` [Dansyl-TRR-amide] (Dansyl-Thr-Arg-Arg-NH2): the “Relative Binding Index (RBI)” value was −10 a.u.

`C[C@@H](O)[C@H](NS(=O)(=O)c1cccc2c(N(C)C)cccc12)C(=O)N[C@@H](CO)C(=O)N[C@@H](CCCNC(=N)N)C(N)=O` [Dansyl-TSR-amide] (Dansyl-Thr-Ser-Arg-NH2): the “Relative Binding Index (RBI)” value is given as 12 a.u.

Consider `C[C@@H](O)[C@H](NC(=O)[C@@H](NS(=O)(=O)c1cccc2c(N(C)C)cccc12)[C@@H](C)O)C(=O)N[C@@H](CCCNC(=N)N)C(N)=O` [Dansyl-TTR-amide] (Dansyl-Thr-Thr-Arg-NH2), for which the “Relative Binding Index (RBI)” value is on record as −3 a.u.

With `CC(C)[C@H](NC(=O)[C@@H](NS(=O)(=O)c1cccc2c(N(C)C)cccc12)[C@@H](C)O)C(=O)N[C@@H](CCCNC(=N)N)C(N)=O` [Dansyl-TVR-amide] (Dansyl-Thr-Val-Arg-NH2), the “Relative Binding Index (RBI)” value is −13 a.u.

For `C[C@@H](O)[C@H](NS(=O)(=O)c1cccc2c(N(C)C)cccc12)C(=O)N[C@@H](Cc1c[nH]c2ccccc12)C(=O)N[C@@H](CCCNC(=N)N)C(N)=O` [Dansyl-TWR-amide] (Dansyl-Thr-Trp-Arg-NH2), the “Relative Binding Index (RBI)” value worked out at 0 a.u.

With `C[C@@H](O)[C@H](NS(=O)(=O)c1cccc2c(N(C)C)cccc12)C(=O)N[C@@H](Cc1ccc(O)cc1)C(=O)N[C@@H](CCCNC(=N)N)C(N)=O` [Dansyl-TYR-amide] (Dansyl-Thr-Tyr-Arg-NH2), the “Relative Binding Index (RBI)” value is −10 a.u.

Regarding `CC(C)[C@H](NS(=O)(=O)c1cccc2c(N(C)C)cccc12)C(=O)N[C@@H](C)C(=O)N[C@@H](CCCNC(=N)N)C(N)=O` [Dansyl-VAR-amide] (Dansyl-Val-Ala-Arg-NH2), the “Relative Binding Index (RBI)” value is on record as −53 a.u.

Take `CC(C)[C@H](NS(=O)(=O)c1cccc2c(N(C)C)cccc12)C(=O)N[C@@H](CC(=O)O)C(=O)N[C@@H](CCCNC(=N)N)C(N)=O` [Dansyl-VDR-amide] (Dansyl-Val-Asp-Arg-NH2): the “Relative Binding Index (RBI)” value is given as −22 a.u.

As to `CC(C)[C@H](NS(=O)(=O)c1cccc2c(N(C)C)cccc12)C(=O)N[C@@H](CCC(=O)O)C(=O)N[C@@H](CCCNC(=N)N)C(N)=O` [Dansyl-VER-amide] (Dansyl-Val-Glu-Arg-NH2), the “Relative Binding Index (RBI)” value is listed as −4 a.u.

Take `CC(C)[C@H](NS(=O)(=O)c1cccc2c(N(C)C)cccc12)C(=O)N[C@@H](Cc1ccccc1)C(=O)N[C@@H](CCCNC(=N)N)C(N)=O` [Dansyl-VFR-amide] (Dansyl-Val-Phe-Arg-NH2): the “Relative Binding Index (RBI)” value is −6 a.u.

As to `CC(C)[C@H](NS(=O)(=O)c1cccc2c(N(C)C)cccc12)C(=O)NCC(=O)N[C@@H](CCCNC(=N)N)C(N)=O` [Dansyl-VGR-amide] (Dansyl-Val-Gly-Arg-NH2), the “Relative Binding Index (RBI)” value amounted to 1 a.u.

In the case of `CC(C)[C@H](NS(=O)(=O)c1cccc2c(N(C)C)cccc12)C(=O)N[C@@H](Cc1cnc[nH]1)C(=O)N[C@@H](CCCNC(=N)N)C(N)=O` [Dansyl-VHR-amide] (Dansyl-Val-His-Arg-NH2), the “Relative Binding Index (RBI)” value was −10 a.u.

`CC[C@H](C)[C@H](NC(=O)[C@@H](NS(=O)(=O)c1cccc2c(N(C)C)cccc12)C(C)C)C(=O)N[C@@H](CCCNC(=N)N)C(N)=O` [Dansyl-VIR-amide] (Dansyl-Val-Ile-Arg-NH2): the “Relative Binding Index (RBI)” value stood at 2 a.u.

`CC(C)[C@H](NS(=O)(=O)c1cccc2c(N(C)C)cccc12)C(=O)N[C@@H](CCCCN)C(=O)N[C@@H](CCCNC(=N)N)C(N)=O` [Dansyl-VKR-amide] (Dansyl-Val-Lys-Arg-NH2): the “Relative Binding Index (RBI)” value is reported as −7 a.u.

Consider `CC(C)C[C@H](NC(=O)[C@@H](NS(=O)(=O)c1cccc2c(N(C)C)cccc12)C(C)C)C(=O)N[C@@H](CCCNC(=N)N)C(N)=O` [Dansyl-VLR-amide] (Dansyl-Val-Leu-Arg-NH2), for which the “Relative Binding Index (RBI)” value is on record as −13 a.u.

Consider `CSCC[C@H](NC(=O)[C@@H](NS(=O)(=O)c1cccc2c(N(C)C)cccc12)C(C)C)C(=O)N[C@@H](CCCNC(=N)N)C(N)=O` [Dansyl-VMR-amide] (Dansyl-Val-Met-Arg-NH2), for which the “Relative Binding Index (RBI)” value is −4 a.u.

As for `CC(C)[C@H](NS(=O)(=O)c1cccc2c(N(C)C)cccc12)C(=O)N[C@@H](CC(N)=O)C(=O)N[C@@H](CCCNC(=N)N)C(N)=O` [Dansyl-VNR-amide] (Dansyl-Val-Asn-Arg-NH2), the “Relative Binding Index (RBI)” value was −3 a.u.

In the case of `CC(C)[C@H](NS(=O)(=O)c1cccc2c(N(C)C)cccc12)C(=O)N1CCC[C@H]1C(=O)N[C@@H](CCCNC(=N)N)C(N)=O` [Dansyl-VPR-amide] (Dansyl-Val-Pro-Arg-NH2), the “Relative Binding Index (RBI)” value is listed as −1 a.u.

As to `CC(C)[C@H](NS(=O)(=O)c1cccc2c(N(C)C)cccc12)C(=O)N[C@@H](CCC(N)=O)C(=O)N[C@@H](CCCNC(=N)N)C(N)=O` [Dansyl-VQR-amide] (Dansyl-Val-Gln-Arg-NH2), the “Relative Binding Index (RBI)” value is listed as 9 a.u.

Regarding `CC(C)[C@H](NS(=O)(=O)c1cccc2c(N(C)C)cccc12)C(=O)N[C@@H](CCCNC(=N)N)C(=O)N[C@@H](CCCNC(=N)N)C(N)=O` [Dansyl-VRR-amide] (Dansyl-Val-Arg-Arg-NH2), the “Relative Binding Index (RBI)” value is reported as −6 a.u.
